For test [1], the system named is Renca kidney cancer tumours. In words: Oral retinoids combined with ICB in Renca kidney cancer-bearing mice. Type of test: in vivo, mouse. The settings on record: retinoid oral 6 days from day 9, ICB days 12, 14, 16 (FIG. 24). The procedure: The following retinoids and dosages were employed: Bexarotene (Saphire Bioscience) was dosed at 100 mg/kg; tretinoin and isotretinoin (Sigma-Aldrich) were all dosed at 10 mg/kg.

The test system of the next test is Renca kidney cancer. The experiment in a line: pSTAT1 flow cytometry of tumours after tretinoin. It is filed as in vivo, mouse. Conditions: tretinoin (FIG. 22C). As for the experimental part:
(§1) For detection of phospho-STAT1, dissociated tumours were stained with surface antibodies, fixed with 1.5% formaldehyde for 10 minutes, then permeabilized with ice-cold methanol at 4° C. for 10 minutes. Cells were stained with a rabbit-anti-pSTAT1 antibody (Tyr701) -PE (Cell Signaling Technology) for 30 minutes at room temperature (RT).
To test whether retinoids induce the ICB response-associated phenotype characterised by increased NK cells, inflammatory markers and pSTAT1 positive leukocytes in the tumour, Renca kidney cancer-bearing mice were treated for […] with oral tretinoin (10 mg/kg) starting on day 12 and harvested tumours on day 15 for flow cytometry. In subsequent experiments AB1-HA mesothelioma or CT26 colorectal cancer tumour-bearing mice were treated with tretinoin for 3 days at 10 mg/kg i.p., starting on day 10 and harvested tumours on day 13 for flow cytometry and immunohistochemistry.
On the technique in general: A flow cytometer gives signals particle by particle.

The next test deals with CT26 colorectal tumours. In words: pSTAT1 immunohistochemistry of tumours after tretinoin. Type of test: in vivo, mouse. Conditions: tretinoin 10 mg/kg (FIG. 22A, B).
Test [2] deals with AB1-HA mesothelioma tumours. In words: Tretinoin combined with ICB in AB1-HA tumour-bearing mice, tumour growth. It is filed as in vivo, mouse. As for the experimental part:
[…] The administration of tretinoin to the mice started either 3 days before ICB or at the same time as the ICB (arm 6). Tretinoin was dosed at three dosages; 10 mg/kg (arm 3), 5 mg/kg (arm 4) or 1 mg/kg (arm 5) and was given for 9 days in total.

The next test has as its system urothelial cancer. The settings on record: 348 urothelial cancer patients; cited from earlier work.
The subject of the next test is melanoma. Conditions: melanoma cohort n=33; cited from earlier work.
For test [3], the system named is AE17 mesothelioma tumours. In words: Poly(I:C) pretreatment followed by ICB with or without IFNAR blocking antibody, tumour growth. Type of test: in vivo, mouse. The procedure:
To test whether the mechanism underlying the priming effect of Poly-I:C was mediated through IFN alpha/beta induction (as discussed in Example 6), priming experiments were repeated while adding blocking antibodies against the IFN alpha/beta receptor (IFNAR). C57BL/6 AE17 mesothelioma tumour-bearing mice were treated with CPB on day 22 after tumour inoculation, with or without pretreatment of 3 days of 50 μg s.c. Poly-I:C in the tumour area (day 17-19), with or without blocking antibodies against IFNAR (e.g., […] monoclonal antibody MAR1-5A3 as sourced from BiXcell) (0.5 mg i.p., 3 times/week) starting at the same time.

Test [4] has as its system AE17 mesothelioma tumours. In words: Flow cytometry of AE17 tumours after intratumoural IFN alpha or poly(I:C) pretreatment. The settings on record: intratumoural 3 days, vs PBS (FIG. 17). It is filed as in vivo, mouse. As for the experimental part: For flow cytometry, tumours were harvested and immediately submerged in cold PBS, cut into 1-2 mm pieces with a scalpel blade and dissociated using the GentleMACS system. Fc block (anti-CD16/CD32, BD) was used for 10 minutes on ice. UV Zombie live/dead (Biolegend) was used to discriminate live cells. Cells were permeabilized and fixed using FoxP3 fix/Perm buffer kit (Biolegend) before addition of antibodies for 20 minutes at RT. See Supplementary Table 2 for antibody details. Cells were kept in stabilizing fixative until acquisition. Data were acquired on a BD Fortessa flow cytometer and analyzed using FlowJo software (TreeStar).
as §1
To verify the potential of recombinant IFN alpha to induce the response-associated phenotype (i.e., to sensitise the tumour cellular microenvironment to ICB) similarly to Poly-I:C, AE17 mesothelioma tumour-bearing mice were pretreated with Poly-I:C or recombinant IFN alpha (: R&D systems) intratumourally for 3 days (or PBS control). […]

Description for CT26 colorectal tumours: For immunohistochemical staining of STAT1 and pSTAT1, slides of 4-μm thickness were cut from formalin-fixed, parafin-embedded (FFPE) tissue blocks. Subsequently, slides were deparafinized in two changes of xylene for about 5 min followed by rehydration in changes of 100%, 96%, 70% and 40% ethanol and distilled water. Next, for STAT1 staining, antigen retrieval using 10 mM citrate buffer (pH 6.0) was performed for about 10 min at 121° C. using a pressure cooker (the PT-module, Thermo scientific, labvision). For pSTAT1 staining, slides were sub-boiled in 1 M EDTA buffer (pH 8.0) for about 10 minutes in a microwave. Slides were rinsed in TBST and the endogenous peroxidase was blocked using 3% hydrogen peroxidase (Sigma) in distilled water. Sections were washed again in TBST and blocked with goat serum (Vectastain) diluted in PBS as per manufacturer's instructions. Primary antibody, STAT1 or pSTAT1 (Cell Signaling, dilution: 1/800 and 1/200 respectively), was incubated for 60 minutes at room temperature (RT). Sections were washed and secondary antibody, goat anti-Rb IgG-HRP (Santa Cruz), was incubated for about 30 minutes at RT, before washing again. Betazoid DAB chromogen (Biocare Medical) was prepared as per manufacturer's instructions. Chromogen was applied, sections were monitored for the development of a brown colour and the reaction was stopped with H2O. […]

Turning to `C=C(c1ccc(C(=O)O)cc1)c1cc2c(cc1C)C(C)(C)CCC2(C)C` [bexarotene], the “percentage of complete regression after combination therapy with ICB, compared to ICB alone” value in test [1] is “increased percentage of complete regression”.
On the same count and under the same terms, in the case of `CC1=C(/C=C/C(C)=C/C=C/C(C)=C\C(=O)O)C(C)(C)CCC1` [isotretinoin, 13-cis-retinoic acid] it was “increased percentage of complete regression”.
As for `CC1=C(/C=C/C(C)=C/C=C/C(C)=C/C(=O)O)C(C)(C)CCC1` [tretinoin, all-trans retinoic acid], the “pSTAT1 positive leukocytes in tumours (flow cytometry)” value in the test with Renca kidney cancer is listed as “increased pSTAT1 positive leukocytes in tumours, particularly in MHC class II positive cells”. Also, the “pSTAT1 immune cell infiltrates in tumours (immunohistochemistry)” value in the test on CT26 colorectal tumours was “increased patches of pSTAT1 immune cell infiltrates”. In addition, in test [2] (AB1-HA (FIG. 21)), the “efficacy of ICB, retinoid before ICB vs at same time as ICB” value is listed as “markedly improved the efficacy of ICB compared to when the retinoid was administered at same time as ICB”. Moreover, the “efficacy of combination with anti-PD-L1 antibody alone as ICB” value in test [2] (AB1-HA, tretinoin 10 mg/kg i.p. 9 days from day 6, anti-PD-L1 days 8, 10, 12 (FIG. 23)) was “more efficacious than use of the antibody alone”. In addition, in test [2] (AB1-HA, tretinoin 10, 5 or 1 mg/kg for 9 days starting 3 days before anti-CTLA4/anti-PD-L1 (FIG. 21)), the “response of the tumours to ICB” value is “improved the response of the tumours to ICB in a dose-dependent manner”.
In the case of atezolizumab: anti-PD-L1 antibody, in the test with urothelial cancer, the “best response: complete responders (CR), number of patients” value was 25; the “best response: partial responders (PR), number of patients” value was 43; the “best response: progressors (PD), number of patients” value is 167; the “best response: stable disease (SD), number of patients” value was 63.
nivolumab: anti-PD1 antibody: in the test with melanoma, the “non-responsive (PD), number of patients” value is reported as 23; the “responsive (CR and PR), number of patients” value is listed as 10.
Regarding “olyinosinic:polycytidylic acid [poly(I:C)]”, the “beneficial effect of pretreatment under IFNAR blockade” value in test [3] (cotreatment with IFNAR blocking antibodies (FIG. 16)) is listed as “abrogated”. In addition, in test [3] (poly(I:C) 3 days before ICB, vs ICB alone (FIG. 16)), the tumour growth result is listed as “clear delay in tumour growth compared to ICB alone”. For the same compound, in test [4], the “NK infiltration (NK cells of all leukocytes)” value is recorded as “increased NK cell numbers” and the “STAT1 phosphorylation (pSTAT1 activation)” value was “pSTAT1 activation”.

The values are drawn from patent US20210015857A1, “METHOD FOR IMMUNOTHERAPY DRUG TREATMENT” (The University of Western Australia, priority 2018, published 2021).
